Data as given in article PMC6069109, “An Aspartate-Specific Solute-Binding Protein Regulates Protein Kinase G Activity To Control Glutamate Metabolism in Mycobacteria” (mBio, 2018).
Where two headings read alike, the source gives them in different places.

How the values were obtained:
Type in all cases: binding
GlnH [1] = target: T1, GlnH (Mycobacterium tuberculosis, UniProt P96257); assay: crystal structure, thermal melt shift
[2] = target: T2, C. glutamicum GlnH (GlnHcg) (Corynebacterium glutamicum, UniProt Q8NM30); assay: intrinsic tryptophan fluorescence, thermal melt shift
T2 construct: gene Cgl2750; soluble domain, N-terminal His6 tag

GlnH [3] = target: T1, GlnH; assay: crystal structure, ITC, thermal melt shift

T1 sequence (P96257 27-328 limits assumed): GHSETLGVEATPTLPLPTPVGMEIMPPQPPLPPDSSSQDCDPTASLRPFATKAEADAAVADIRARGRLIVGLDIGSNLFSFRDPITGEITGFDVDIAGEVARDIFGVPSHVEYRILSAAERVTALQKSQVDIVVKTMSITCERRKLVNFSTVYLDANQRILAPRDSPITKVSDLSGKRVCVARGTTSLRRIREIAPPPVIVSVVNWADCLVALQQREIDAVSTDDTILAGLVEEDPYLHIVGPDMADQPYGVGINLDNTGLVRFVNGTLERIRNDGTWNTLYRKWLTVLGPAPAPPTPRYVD
T2 sequence (Q8NM30 entry or part of it): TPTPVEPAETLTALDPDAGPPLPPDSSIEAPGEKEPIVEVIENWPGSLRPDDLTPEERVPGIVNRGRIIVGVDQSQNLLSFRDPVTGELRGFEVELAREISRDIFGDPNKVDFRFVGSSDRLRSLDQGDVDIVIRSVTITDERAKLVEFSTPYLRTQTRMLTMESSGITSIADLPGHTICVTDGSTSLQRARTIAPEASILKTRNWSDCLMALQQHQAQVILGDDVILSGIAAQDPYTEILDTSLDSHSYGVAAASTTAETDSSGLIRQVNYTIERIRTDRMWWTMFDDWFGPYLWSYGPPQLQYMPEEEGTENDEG

NC(=O)C[C@H](N)C(=O)O [asparagine]
crystal structure, thermal melt shift (GlnH [1]): 6H1U (GlnH with Asp), 6H20 (GlnH with Asn), and 6H2T (GlnH with Glu)

N[C@@H](CC(=O)O)C(=O)O [aspartate]
Kd ([2]; read-out: Kd (μM)^a): 550 ± 90 µM | Kd (GlnH [3]; read-out: Kd (μM)^a): 4.8 ± 0.6 µM

N[C@@H](CCC(=O)O)C(=O)O [glutamate]
Kd [2]: 2060 µM | Kd (GlnH [3]): 15.2 ± 5.7 µM
